In brackets after ≈: the same amount, converted by molar mass.
Legend:
Rhizopus oryzae [1] = assay: checkerboard drug interaction (FICI, MICc); format: cell-based;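 further: simplified diagonal checkerboard screen pairing antifungals with FPPS inhibitors, FICI calculated under the Loewe additivity model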
Description: (§1) Drug interactions between antifungals and FPPS inhibitors were investigated using a simplified checkerboard diagonal screening method ([45]). […] FICIs were determined according to the Loewe additivity model ([17]).

Aspergillus terreus = assay: MIC broth microdilution (CLSI); format: cell-based; conditions: Aspergillus terreus 75-16-089-2500
Description: (§2) Antifungal susceptibility was determined by broth microdilution according to the CLSI guidelines described in M27-Ed4 ([16]).

Rhizopus oryzae [2] = assay: MIC broth microdilution (CLSI); format: cell-based; conditions: Rhizopus oryzae 04-14-364-1703
Description: as §2

Aspergillus felis [3] = assay: checkerboard drug interaction (FICI, MICc); format: cell-based;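 further: simplified diagonal checkerboard screen pairing antifungals with FPPS inhibitors, FICI calculated under the Loewe additivity model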
Description: as §1

Nannizzia nana [4] = assay: MIC broth microdilution (CLSI); format: cell-based; conditions: Nannizzia nana R-133
Description: as §2

[5] = tested on: Cryptococcus deneoformans; assay: checkerboard drug interaction (FICI, MICc); format: cell-based;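 further: simplified diagonal checkerboard screen pairing antifungals with FPPS inhibitors, FICI calculated under the Loewe additivity model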
Description: as §1

Cryptococcus gattii [6] = assay: checkerboard drug interaction (FICI, MICc); format: cell-based;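 further: simplified diagonal checkerboard screen pairing antifungals with FPPS inhibitors, FICI computed under the Loewe additivity model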
Description: as §1

Candida tropicalis [7] = assay: MIC broth microdilution (CLSI); format: cell-based; conditions: Candida tropicalis M230640
Description: as §2

[8] = tested on: Trichophyton interdigitale; assay: checkerboard drug interaction (FICI, MICc);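 further: simplified diagonal checkerboard screen pairing antifungals with FPPS inhibitors, FICI values calculated under the Loewe additivity model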
Description: as §1

Aspergillus udagawae = assay: checkerboard drug interaction (FICI, MICc); format: cell-based;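 further: simplified diagonal checkerboard screen pairing antifungals with FPPS inhibitors, FICI calculated using the Loewe additivity model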
Description: as §1

Lomentospora prolificans = assay: MIC broth microdilution (CLSI); format: cell-based; conditions: Lomentospora prolificans 80-16-101-2445
Description: as §2

Candida parapsilosis [9] = assay: checkerboard drug interaction (FICI, MICc); format: cell-based;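 further: simplified diagonal checkerboard screen pairing antifungals with FPPS inhibitors, with FICI computed under the Loewe additivity model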
Description: as §1

Nannizzia nana [10] = assay: checkerboard drug interaction (FICI, MICc); format: cell-based;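 further: simplified diagonal checkerboard screen pairing antifungals with FPPS inhibitors, FICI calculated under the Loewe additivity model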
Description: as §1

Candida auris = assay: checkerboard drug interaction (FICI, MICc); format: cell-based;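 further: simplified diagonal checkerboard screen pairing antifungals with FPPS inhibitors, with FICI computed under the Loewe additivity model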
Description: as §1

Aspergillus felis [11] = assay: MIC broth microdilution (CLSI); format: cell-based; conditions: Aspergillus felis IHE87256683D6
Description: as §2

Cryptococcus gattii [12] = assay: MIC broth microdilution (CLSI); format: cell-based; conditions: Cryptococcus gattii PNG27
Description: as §2

Mucor circinelloides = assay: checkerboard drug interaction (FICI, MICc); format: cell-based
Description: as §1

[13] = tested on: Aspergillus frankstonensis; assay: MIC broth microdilution (CLSI); format: cell-based; conditions: Aspergillus frankstonensis DTO 341-F3
Description: as §2

Candida parapsilosis [14] = assay: MIC broth microdilution (CLSI); format: cell-based; conditions: Candida parapsilosis ATCC 22018
Description: (§3) Antifungal susceptibility was determined by broth microdilution according to the CLSI guidelines described in M27-Ed4 ([16]). […] MFC was determined by back-plating drug-treated cultures from MIC broths onto SDA plates. The MFC was defined as the lowest concentration from which no colonies could be cultured.

Pichia kudriavzevii = assay: MIC broth microdilution (CLSI); format: cell-based; conditions: Pichia kudriavzavii ATCC 6258
Description: as §3

[15] = tested on: Cryptococcus bacillisporus; assay: checkerboard drug interaction (FICI, MICc); format: cell-based;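 further: interaction of antifungals with FPPS inhibitors assessed by a simplified diagonal checkerboard screen, with FICI computed under the Loewe additivity model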
Description: as §1

Microsporum canis [16] = assay: MIC broth microdilution (CLSI); conditions: Microsporum canis R-232
Description: as §2

Aspergillus niger = assay: MIC broth microdilution (CLSI); format: cell-based; conditions: Aspergillus niger 111
Description: as §2

Candida tropicalis [17] = assay: checkerboard drug interaction (FICI, MICc); format: cell-based;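 further: simplified diagonal checkerboard screen of antifungal plus FPPS inhibitor combinations, with FICI computed by the Loewe additivity model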
Description: as §1

Aspergillus lentulus [18] = assay: checkerboard drug interaction (FICI, MICc); format: cell-based;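 further: simplified diagonal checkerboard screen pairing antifungals with FPPS inhibitors, with the interaction index calculated under the Loewe additivity model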
Description: as §1

Microsporum canis [19] = assay: checkerboard drug interaction (FICI, MICc); format: cell-based
Description: as §1

Paraphyton cookei = assay: MIC broth microdilution (CLSI); format: cell-based; conditions: Paraphyton cookei R-639
Description: as §2

Aspergillus lentulus [20] = assay: MIC broth microdilution (CLSI); format: cell-based; conditions: Aspergillus lentulus DTO 341-G7
Description: as §2

Trichophyton tonsurans = assay: MIC broth microdilution (CLSI); conditions: Trichophyton tonsurans R-168
Description: as §2

Scedosporium apiospermum = assay: MIC broth microdilution (CLSI); format: cell-based; conditions: Scedosporium apiospermum 04-16-022-2268
Description: as §2

[21] = tested on: Aspergillus frankstonensis; assay: checkerboard drug interaction (FICI, MICc);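 further: simplified diagonal checkerboard screen pairing antifungals with FPPS inhibitors, FICI calculated using the Loewe additivity model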
Description: as §1

[22] = tested on: Cryptococcus bacillisporus; assay: MIC broth microdilution (CLSI); format: cell-based; conditions: Cryptococcus bacillisporus NIH179
Description: as §2

Aspergillus parafelis = assay: checkerboard drug interaction (FICI, MICc)
Description: as §1

Trichophyton soudanense = assay: checkerboard drug interaction (FICI, MICc); format: cell-based;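 further: simplified diagonal checkerboard screen pairing antifungals with FPPS inhibitors, FICI computed under the Loewe additivity model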
Description: as §1

Epidermophyton floccosum = assay: MIC broth microdilution (CLSI); format: cell-based; conditions: Epidermophyon floccosum R-113
Description: as §2

Nc1nc(=O)[nH]cc1F [5FC, 5-flucytosine]
antifungal MICc (Rhizopus oryzae [1]; in combination with 10-ZOL): 512
antifungal MICc (Rhizopus oryzae [1]; in combination with ZOL): 256
MIC / MEC (Aspergillus terreus): 64 µg/mL (≈ 496 µM)
MIC / MEC (Rhizopus oryzae [2]): >64 µg/mL
antifungal MICc (Aspergillus felis [3]; in combination with 10-ZOL): 256
antifungal MICc (Aspergillus felis [3]; in combination with ZOL): 64
MIC / MEC (Nannizzia nana [4]): 32 µg/mL (≈ 248 µM)
antifungal MICc ([5]; in combination with 10-ZOL): 0.25
antifungal MICc ([5]; in combination with ZOL): 0.5
antifungal MICc (Cryptococcus gattii [6]; in combination with 10-ZOL): 0.25
antifungal MICc (Cryptococcus gattii [6]; in combination with ZOL): 0.125
MIC / MEC (Candida tropicalis [7]): 0.5 µg/mL (≈ 3.87 µM)
antifungal MICc ([8]; in combination with 10-ZOL): 64
antifungal MICc ([8]; in combination with ZOL): 128
antifungal MICc (Aspergillus udagawae; in combination with 10-ZOL): 64
antifungal MICc (Aspergillus udagawae; in combination with ZOL): 256
MIC / MEC (Lomentospora prolificans): >64 µg/mL
antifungal MICc (Candida parapsilosis [9]; in combination with 10-ZOL): 0.125
antifungal MICc (Candida parapsilosis [9]; in combination with ZOL): 0.25
antifungal MICc (Nannizzia nana [10]; in combination with 10-ZOL): 32
antifungal MICc (Nannizzia nana [10]; in combination with ZOL): 64
antifungal MICc (Candida auris; in combination with 10-ZOL): 2
antifungal MICc (Candida auris; in combination with ZOL): 1
MIC / MEC (Aspergillus felis [11]): >64 µg/mL
MIC / MEC (Cryptococcus gattii [12]): 0.5 µg/mL (≈ 3.87 µM)
antifungal MICc (Mucor circinelloides; in combination with 10-ZOL): 512
antifungal MICc (Mucor circinelloides; in combination with ZOL): 512
MIC / MEC [13]: >64 µg/mL
MIC / MEC (Candida parapsilosis [14]): 0.5 µg/mL (≈ 3.87 µM)
MIC / MEC (Pichia kudriavzevii): 16 µg/mL (≈ 124 µM)
antifungal MICc ([15]; in combination with 10-ZOL): 1
antifungal MICc ([15]; in combination with ZOL): 0.125
MIC / MEC (Microsporum canis [16]): >64 µg/mL
MIC / MEC (Aspergillus niger): >64 µg/mL
antifungal MICc (Candida tropicalis [17]; in combination with 10-ZOL): 0.5
antifungal MICc (Candida tropicalis [17]; in combination with ZOL): 0.125
antifungal MICc (Aspergillus lentulus [18]; in combination with 10-ZOL): 512
antifungal MICc (Aspergillus lentulus [18]; in combination with ZOL): 256
antifungal MICc (Microsporum canis [19]; in combination with 10-ZOL): 256
antifungal MICc (Microsporum canis [19]; in combination with ZOL): 512
MIC / MEC (Paraphyton cookei): >64 µg/mL
MIC / MEC (Aspergillus lentulus [20]): >64 µg/mL
MIC / MEC (Trichophyton tonsurans): 64 µg/mL (≈ 496 µM)
MIC / MEC (Scedosporium apiospermum): >64 µg/mL
antifungal MICc ([21]; in combination with 10-ZOL): 256
antifungal MICc ([21]; in combination with ZOL): 256
MIC / MEC [22]: 4 µg/mL (≈ 31 µM)
antifungal MICc (Aspergillus parafelis; in combination with 10-ZOL): 512
antifungal MICc (Aspergillus parafelis; in combination with ZOL): 128
antifungal MICc (Trichophyton soudanense; in combination with 10-ZOL): 64
antifungal MICc (Trichophyton soudanense; in combination with ZOL): 64
MIC / MEC (Epidermophyton floccosum): 64 µg/mL (≈ 496 µM)

C[C@@H](c1ncncc1F)[C@](O)(Cn1cncn1)c1ccc(F)cc1F [VOR]
antifungal MICc (Rhizopus oryzae [1]; in combination with 10-ZOL): 8
antifungal MICc (Rhizopus oryzae [1]; in combination with ZOL): 8
MIC / MEC (Aspergillus terreus): 0.25 µg/mL (≈ 0.716 µM)
MIC / MEC (Rhizopus oryzae [2]): 16 µg/mL (≈ 45.8 µM)
antifungal MICc (Aspergillus felis [3]; in combination with 10-ZOL): 0.5
antifungal MICc (Aspergillus felis [3]; in combination with ZOL): 0.5
MIC / MEC (Nannizzia nana [4]): 0.06 µg/mL (≈ 0.172 µM)
antifungal MICc ([5]; in combination with 10-ZOL): 0.063
antifungal MICc ([5]; in combination with ZOL): 0.0625
antifungal MICc (Cryptococcus gattii [6]; in combination with 10-ZOL): 0.033
antifungal MICc (Cryptococcus gattii [6]; in combination with ZOL): 0.06
MIC / MEC (Candida tropicalis [7]): 0.13 µg/mL (≈ 0.372 µM)
antifungal MICc ([8]; in combination with 10-ZOL): 0.063
antifungal MICc ([8]; in combination with ZOL): 0.0625
antifungal MICc (Aspergillus udagawae; in combination with 10-ZOL): 0.03
antifungal MICc (Aspergillus udagawae; in combination with ZOL): 0.5
MIC / MEC (Lomentospora prolificans): 16 µg/mL (≈ 45.8 µM)
antifungal MICc (Candida parapsilosis [9]; in combination with 10-ZOL): 0.063
antifungal MICc (Candida parapsilosis [9]; in combination with ZOL): 0.125
antifungal MICc (Nannizzia nana [10]; in combination with 10-ZOL): 0.0625
antifungal MICc (Nannizzia nana [10]; in combination with ZOL): 0.0625
antifungal MICc (Candida auris; in combination with 10-ZOL): 0.25
antifungal MICc (Candida auris; in combination with ZOL): 1
MIC / MEC (Aspergillus felis [11]): 2 µg/mL (≈ 5.73 µM)
MIC / MEC (Cryptococcus gattii [12]): 0.06 µg/mL (≈ 0.172 µM)
antifungal MICc (Mucor circinelloides; in combination with 10-ZOL): 4
antifungal MICc (Mucor circinelloides; in combination with ZOL): 4
MIC / MEC [13]: 2 µg/mL (≈ 5.73 µM)
MIC / MEC (Candida parapsilosis [14]): 0.13 µg/mL (≈ 0.372 µM)
MIC / MEC (Pichia kudriavzevii): 0.5 µg/mL (≈ 1.43 µM)
antifungal MICc ([15]; in combination with 10-ZOL): 0.03
antifungal MICc ([15]; in combination with ZOL): 0.125
MIC / MEC (Microsporum canis [16]): 0.03 µg/mL (≈ 0.0859 µM)
MIC / MEC (Aspergillus niger): 1 µg/mL (≈ 2.86 µM)
antifungal MICc (Candida tropicalis [17]; in combination with 10-ZOL): 0.032
antifungal MICc (Candida tropicalis [17]; in combination with ZOL): 0.0625
antifungal MICc (Aspergillus lentulus [18]; in combination with 10-ZOL): 0.5
antifungal MICc (Aspergillus lentulus [18]; in combination with ZOL): 0.5
antifungal MICc (Microsporum canis [19]; in combination with 10-ZOL): 0.031
antifungal MICc (Microsporum canis [19]; in combination with ZOL): 0.015
MIC / MEC (Paraphyton cookei): 0.5 µg/mL (≈ 1.43 µM)
MIC / MEC (Aspergillus lentulus [20]): 4 µg/mL (≈ 11.5 µM)
MIC / MEC (Trichophyton tonsurans): 0.13 µg/mL (≈ 0.372 µM)
MIC / MEC (Scedosporium apiospermum): 1 µg/mL (≈ 2.86 µM)
antifungal MICc ([21]; in combination with 10-ZOL): 4
antifungal MICc ([21]; in combination with ZOL): 2
MIC / MEC [22]: 0.06 µg/mL (≈ 0.172 µM)
antifungal MICc (Aspergillus parafelis; in combination with 10-ZOL): 2
antifungal MICc (Aspergillus parafelis; in combination with ZOL): 2
antifungal MICc (Trichophyton soudanense; in combination with 10-ZOL): 0.063
antifungal MICc (Trichophyton soudanense; in combination with ZOL): 0.03125
MIC / MEC (Epidermophyton floccosum): 0.25 µg/mL (≈ 0.716 µM)
